The values below come from patent publication US9578878B2, “Antimicrobial efficacy of an oregano oil and caprylic acid blend” (Kemin Industries, Inc., priority 2014, dated 2017).

Assay [1] relates to A. brasiliensis. In words: Poison agar assay. Type of assay: cell-based, Aspergillus brasiliensis. How it is done: (§1) Microorganisms Escherichia coli (ATCC #8739), Streptococcus sanguinis (ATCC #BAA-1455), Salmonella enteria subsp. enterica (ex Kauffmann and Edwards) Le Minor and Popoff serovar Typhimurium (ATCC #14028), Staphylococcus aureus (ATCC #6538), Pseudomonas aeruginosa (ATCC #9027), and Candida albicans (ATCC #10231) were obtained from a −80° C. internal stock culture. Aspergillus brasiliensis (ATCC #16404) was obtained from an internal stock solution culture stored at 4° C. E. coli, S. enterica S. aureus, and P. aeruginosa were grown in tryptic soy broth (TSB) and incubated at 37° C. for 24 h. S. sanguinis was grown in brain heart infusion broth (BHI). A. brasiliensis was plated on Sabourand dextrose agar (SDA) and incubated at 25° C. for 5-7 days. C. albicans was grown in Sabourand dextrose broth (SDB) and incubated at 25° C. for 48 h.
(§2) A. brasiliensis was harvested by adding 18 mL sterile saline to the plate and agitating the mold from the agar with a sterile inoculating loop. The inoculum was collected upon agitation. All suspended microbes were diluted with the same type of broth media used to grow each organism until an inoculum in the range of 10^6 CFU/mL was achieved. The inoculum concentration was determined by plate count method. Each strain was identified by plating on the appropriate growth media, E. coli, S. aureus, and P. aeruginosa on tryptic soy agar (Bacto, BD Sciences, Manassas, Va.) and C. albicans and A. brasiliensis on Sabrouand dextrose agar, to ensure there was no contamination of the inoculum.
A poison agar assay was completed for A. brasiliensis. Potato dextrose agar was used as the plated medium. Inocula at 10^5 cfu/ml were prepared and counted using a Petroff-Hausser counting chamber. Each treatment was added directly into the control without DMSO and Tween 80 as used in the previous experiments. The diameter of no growth around a 6 mm blank disk after incubation at 25° C. for 72 hrs was compared to the untreated control.

For assay [2], the system named is Streptococcus sanguinis (ATCC #BAA-1455). The assay is described as follows: Microtiter assay, MIC to inhibit 90% growth. Particulars: 24 hours, n = 3. Type of assay: cell-based. How it is done:
(§3) For assays to find minimum inhibitory concentrations, all treatments were diluted in 10% DMSO and 0.5% Tween 80 to stabilize the samples.
as §1, §2
(§4) Microtiter Assay. A microtiter assay was completed E. coli, S. aureus, P. aeruginosa, S. enteria, S. sanguinis, and C. albicans. Briefly, 10^6 cfu/ml preparations of each organism were made and enumerated using a Petroff-Hausser counting chamber. A 100 μl aliquot of the inoculums was dispensed into microtiter plate wells and a 100 μl aliquot of treatment was dispensed into the same wells. Two separate set of wells were prepared as positive and negative controls, with the positive wells containing 100 μl test organism in growth media and 100 μl sterile phosphate buffer and with the negative control wells containing 100 μl of the same growth media and 100 μl sterile phosphate buffer. The plates were incubated overnight at the appropriate temperature for each organism. A plate reader was used to track the kinetic growth curve using 405 nm and […]. The last time point at 24 hours was averaged and used to determine MIC90. Each treatment was conducted in triplicate wells.

The test system of assay [3] is Candida albicans (ATCC #10231). In words: Microtiter assay, MIC to inhibit 90% growth. Type of assay: cell-based. To be noted: 24 hours, n = 3. As to the method:
as §3, §1, §2, §4

For assay [4], the system named is Staphylococcus aureus (ATCC #6538). In words: Microtiter assay, MIC to inhibit 90% growth. Type of assay: cell-based. To be noted: 24 hours, n = 3. How it is done: as §3, §1, §2, §4
For assay [5], the system named is Salmonella enterica. In words: Microtiter assay, MIC to inhibit 90% growth. To be noted: 24 hours, n = 3. In kind it is cell-based. How it is done: as §3, §1, §2, §4
Assay [6] relates to Pseudomonas aeruginosa (ATCC #9027). The assay is described as follows: Microtiter assay, MIC to inhibit 90% growth. Particulars: 24 hours, n = 3. In kind it is cell-based. As to the method:
as §3, §1, §2, §4

In assay [7] the test system is Escherichia coli (ATCC #8739). The assay is described as follows: Microtiter assay, MIC to inhibit 90% growth. Type of assay: cell-based. Particulars: 24 hours, n = 3. How it is done: as §3, §1, §2, §4

Consider `Cc1ccc(C(C)C)cc1O` [Carvacrol, carvacrol], for which the entries for the “% Inhibition from Control” value in assay [1] (0.005% in agar), in assay [1] (0.010% in agar) and in assay [1] (0.030% in agar) were 15.10%, 64.70% and 100.00%, respectively. Also, the “Diameter of Growth” value in assay [1] (0.005% in agar) amounted to 6.50 mm; in assay [1] (0.010% in agar) it was 2.70 mm; in assay [1] (0.030% in agar) it was 0.00 mm. The “MIC90 in the poison agar assay” value in assay [1] (potato dextrose agar, 25° C., 72 hrs) was 0.03%. For the same compound, the “Minimum Inhibitory Concentration (MIC) to inhibit 90% growth, S. sanguinis” value in assay [2] is recorded as 0.05%. Also, the “Minimum Inhibitory Concentration (MIC) to inhibit 90% growth, C. albicans” value in assay [3] turned out to be 0.10%. Further, the “Minimum Inhibitory Concentration (MIC) to inhibit 90% growth, S. aureus” value in assay [4] was 0.05%. In addition, in assay [5], the “Minimum Inhibitory Concentration (MIC) to inhibit 90% growth, S. enterica” value is 0.05%. Further, the “Minimum Inhibitory Concentration (MIC) to inhibit 90% growth, P. aeruginosa” value in assay [6] is listed as >0.1%. For the same compound, in assay [7], the “Minimum Inhibitory Concentration (MIC) to inhibit 90% growth, E. coli” value came out at 0.10%.
